Data as given in patent US20220125754A1, “TREATING THE CAUSATIVE AGENT IN ADHESIOGENESIS” (Helmholtz Zentrum München - Deutsches Forschungszentrum Für …, priority 2019, published 2022).

Columns and labels:
Met-5A cells = experiment: Adhesion propagation assay (nanoluciferase expressing Met-5A cells); format: cell-based, human; settings: for transmissibility: 10 μM, 24 hours, adhesion propagation assay (FIG. 6D) and Cre-exchange transmission assay (FIG. 6E)
Procedure: […] After 24 hours, unbound carriers were washed away and nanoluciferase luminescence was measured. This represents the initial stress-dependent transmitted adhesion.
[…] Carriers were then separated from the monolayer and placed on an unstressed Met-5A wild-type monolayer. After 24 hours, unbound beads were washed away and nanoluciferase luminescence was measured. This represents the first stress-independent transmitted adhesion.
Carriers were then separated from the monolayer and placed on unstressed cell-covered beads stably expressing nanoluciferase (AF1) for 3 hours. Carriers were then isolated once more and placed on an unstressed Met-5A monolayer stably expressing the dTomato-P2A-NanoLuciferase reporter construct (AF34). Unbound beads were then washed away and nanoluciferase luminescence was measured after 24 hours. This represents the second stress-independent transmitted adhesion.
This procedure was continued similarly for the consecutive third and fourth transmissions.
First, repeated consecutive mixing experiments were performed with nanoluciferase-expressing Met-5A cells to study the extent of adhesion propagation. When unstressed cells were exposed to heliocytes, and then separated, they were fully able to generate adhesions even though they had not themselves experienced stress (FIG. 3F). Pharmacological inhibition of HIF-1α signaling has been one of the few proposed intervention routes to reduce adhesion burden^16, thus it was tested to see whether the HIF-1α inhibitor echinomycin could inhibit transmissibility. […] Transmission occurred rapidly, as unstressed cells only had to be exposed to heliocytes for a total of 90 min for successful transmission to occur and allow them to form adhesions themselves (FIG. 3H). Second, two additional cell lines were generated, one expressing Cre recombinase and one expressing a stop codon flanked by two LoxP sites followed by a dTomato-P2A-Nanoluciferase. In this transmission assay, Cre recombinase only drives dTomato-P2A-Nanoluc expression if extensive cytoplasmic mixing occurs that allows Cre recombinase protein to be transferred and shuttled into the nucleus of the dTomato-P2A-Nanoluc cells. Indeed, extensive dTomato fluorescence was observed 3 hours after unstressed carriers were seeded onto a stressed monolayer (FIG. 3I). Under consecutive mixing conditions, like the propagation set-up, naive cells receiving cellular contents from heliocytes could in turn transmit to other cells independently from HIF-1α signaling, for a total of three rounds after the original stress stimulus (FIGS. 3J and K). Because cytoskeletal networks and membrane shuffling are extremely sensitive to shifts in available calcium^17, it was asked whether calcium signaling underlies heliocyte formation and filipodial extensions, using two independent approaches.

[1] = tested on: Met-5A cells on microcarrier beads; experiment: High-throughput carrier-carrier adhesion assay (nanoluciferase); format: cell-based, human; settings: desiccation shock, high-throughput nanoluciferase assay (FIG. 6C)
Procedure: (§1) FIG. 6: Single-cell transcriptomics of heliocytes. A) Overview of the Dropseq workflow. B) Epi-fluorescent representative images of Met-5A cells stably expressing membranous GFP, stressed with desiccation and treated with small-molecule compounds for 24 hours (10 μM). Scale bar, 10 μm. C) Desiccation shock induces small-molecule sensitive carrier-carrier aggregation as assessed with a high-throughput nanoluciferase assay. ID) Adhesion propagation assay (see methods) with nanoluciferase expressing Met-5A cells after treatment with small molecule inhibitors for 24 hours (10 μM). E) Cre-exchange transmission assay (see methods) with Cre-recombinase and Cre-dependent nanoluciferase expressing Met-5A cells after treatment with small molecule inhibitors for 24 hours (10 μM).
Cells were incubated with ice cold luciferase lysis buffer (25 mM Tris-HCL pH 7.8, 1% Triton X-100, 15 mM MgSO4, 4 mM EGTA, 1 mM DTT) for 20 minutes. Both assays were performed in a 96-wells plate format. Luciferase firefly substrate was dissolved in PBS, and consisted of 20 mM Tricine, 2.67 mM MgSO4, 0.1 mM EDTA, 33.3 mM DTT, 0.52 mM ATP, 0.27 mM Acetyl-CoA, 5 mM NaOH, […], and 0.47 mM D-Luciferin (Carl Roth, #CN24.3). For nanoluciferase, the substrate solution included 47.2 μM Coelenterazine (Carl Roth, #4094.4). Luminescence was detected after 5 minutes of substrate and lysate co-incubation using the TriStar^2 LB 942 Modular Multimode microplate reader (Berthold Technologies).
Met-5A cells were seeded together with Cytodex® 3 microcarrier beads (Sigma Aldrich, #03275) in a ratio of 500:1, and allowed to adhere and grow for 5 days. Cell-covered beads were then eluted from the culture dish using a 25 mL stripette. The resulting solution was strained through a 100 μm cell strainer (Corning, #352360). […] was induced by placing the bead-containing cell strainer under a running cell culture flow hood for 15 minutes. Afterwards, beads were eluted with assay medium and placed in a cultivation dish coated with HEMA silicate solution (Sigma Aldrich, #P3932), to prevent cell attachment. After indicated time points, carrier complexes were collected by filtering them through a 200 μm cell strainer, which allows individual carriers to pass, while trapping carrier complexes. Adhesions were measured in a high throughput manner through the use of Met-5A cells stably expressing luciferase (AF23) or nanoluciferase (AF1) using Integra Viaflo pipettes.

[2] = tested on: heliocytes (stressed Met-5A mesothelial cells); experiment: Protrusion development in desiccation-stressed Met-5A cells expressing membranous GFP (epi-fluorescence); format: cell-based, human; settings: 10 μM, 24 hours, desiccation stress (FIG. 6B)
Procedure: as §1
Met-5A cells were seeded on gelatin (Sigma Aldrich, #G1393) coated dishes. Once a confluent monolayer was established, stressed cell-covered beads were seeded onto the monolayer. For the inhibitory experiments, if not indicated otherwise, monolayer cells were pretreated with the indicated compound for 30 minutes in culture medium. Afterwards the adhesion assay was performed as described above.
Mesothelial protrusion analysis was performed using the Advanced weka segmentation Fiji plugin^37. It utilizes a collection of machine learning algorithms for segmentation. Specifically, pixel-based segmentation is based on image features annotated to different classes. Pixel samples were free drawn and assigned to respective classes, e.g. ‘filopodia’, ‘cell body’, or ‘background’. Subsequent rounds of training were performed to allot respective pixels and structures to its corresponding classes for improved segmentation. Training features, such as ‘Gaussian blur’, ‘Sobel filter’, ‘Hessian’, ‘Difference of Gaussians’ and ‘Membrane projections’ were applied along with default classifier ‘Fast Random Forest’. Other settings were kept as default (membrane thickness 1, membrane patch size 19, minimum sigma 1.0, and maximum sigma 16.0). The trained classifier and data were saved for analysis of other ‘stressed’ and ‘unstressed’ mesothelial datasets. A macro was written to automate the above steps for other datasets with pause for 5 seconds (wait(5000) function) after each step for smooth processing. Images from the segmented classes were extracted and subjected to post processing.
In order to identify underlying mechanisms of heliocyte transformation, differential gene expression analysis was performed using a likelihood-ratio test for single cell gene expression data^21. This identified 1644 genes that were regulated in stressed cells at one or more time points (FDR<10%). […]

adhesion formation = experiment: Murine adhesion model (total adhesion score); format: in vivo, mice; settings: for adhesion formation (adhesion score): daily intraperitoneal injection, day 5 after injury (FIG. 9)
Procedure: Small molecule inhibitors were solubilized in sterile 2% hydroxyethyl-cellulose (Sigma Aldrich, #09368). Compounds were being added immediately prior to surgery, and were derived from a 100-150 mM stock solution to minimize the final DMSO content. The final solution (200 μL per 30 g body weight) was sandwiched between the visceral and parietal layer of the injured cecum and peritoneum respectively.
Mice were anesthetized by an intraperitoneal injection of a Medetomidin (500 μg/kg), Midazolam (5 mg/kg) and Fentanyl (50 μg/kg) cocktail, hereafter referred to as MMF. Monitoring anesthetic depth was assessed by toe reflex. Eyes were covered with Bepanthen to avoid dehydration, and the abdomen was shaved and disinfected with betadine and sterile phosphate buffered saline (PBS). Animals were kept on their backs on a heating plate at 37° C. A midline laparotomy (1-1.5 cm) was performed through the skin and peritoneum. Four hooks, positioned around the incision and fixed to a retractor and magnetic base plate, allowed for clear access to the abdominal cavity. A small surgical brush was used to gently abrade the peritoneal surface and apposing cecal surface. Two surgical knots using 4-0 silk sutures (Ethicon) were then placed through the serosal surface of the peritoneum. A cotton swab was used to gently apply a dab of talc powder (Sigma Aldrich, #243604) onto the injured surfaces. Before closure of the incision, buprenorphine (0.1 mg/kg) was pipetted in the abdomen to allow for initial post-surgical analgesia. For long-term analgesia, metamizol (Novalgin, 200 mg/kg) was provided through daily injection. The peritoneum and skin were closed with two separate 4-0 silk sutures (Ethicon). Upon closure of the incision, mice were woken up by antagonizing the MMF solution through a subcutaneous cocktail injection of Atipamezol (1 mg/kg) and Flumazenil (0.25 mg/kg). Mice were allowed to recover on a heating pad, after which they were housed together (females) or individually (males), and followed for 1-5 days. Adhesions were scored using gross morphological features that indicated adhesion development. Five individual adhesion features were scored (see table below) that together provided a cumulative value that determined the total adhesion score. With this system, complete absence of adhesions were scored as 0, whereas the maximum adhesion score was 15.
Mice were anesthetized by an intraperitoneal injection of a Medetomidin (500 μg/kg), Midazolam (5 mg/kg) and Fentanyl (50 μg/kg) cocktail, hereafter referred to as MMF. Monitoring anesthetic depth was assessed by toe reflex. Eyes were covered with Bepanthen to avoid dehydration, and the abdomen was shaved and disinfected with betadine and sterile phosphate buffered saline (PBS). Animals were kept on their backs on a heating plate at 37° C. A midline laparotomy (1-1.5 cm) was performed through the skin and peritoneum. Four hooks, positioned around the incision and fixed to a retractor and magnetic base plate, allowed for clear access to the abdominal cavity. A small surgical brush was used to gently abrade the peritoneal surface and apposing cecal surface. Two surgical knots using 4-0 silk sutures (Ethicon) were then placed through the serosal surface of the peritoneum. A cotton swab was used to gently apply a dab of talc powder (Sigma Aldrich, #243604) onto the injured surfaces. Before closure of the incision, buprenorphine (0.1 mg/kg) was pipetted in the abdomen to allow for initial post-surgical analgesia. […]

[3] = tested on: caspase3 activity in heliocytes; experiment: Caspase3 activity reporter assay (nanoluciferase-caspase3 cleavage site-degradation peptide); format: cell-based, human; settings: stressed mesothelial cells (heliocytes), compared to control (FIG. 12)
Procedure: Then, determination of caspase3 activity in heliocytes was performed. Cells stably expressing a nanoluciferase-caspase3-cleaving-site-degredation-peptide (FIG. 12) were grown on beads seeded onto a Met-5A monolayer. After 24 h nanoluciferase activity was determined. The degradation peptide leads to constitutive degradation of nanoluciferase, active caspase3 cleaves the protein linker, thus removing the degradation signal, leading to increased nanoluciferase amount.
(§2) In order to test listed inhibitor treatments for potential unwanted side effects, in vitro as well as in vivo apoptosis readouts were performed. […] Next, fragmented DNA amounts in the in vitro adhesions were determined, staurosporine representing as the positive control. […] Apoptosis signaling cascades dependent on caspase3 protease activity. To screen caspase3 activity in a high throughput manner, a new functional screening assay was developed. The assay is based on a nanoluciferase fused to a degradation signaling peptide interlinked with caspase3 cleavage sites. Once activated, caspase3 cleaves protein linker, removes the degradation signal and prevents proteasomal digestion of the nanoluciferase.

[4] = tested on: stressed mesothelial cells (heliocytes); experiment: Apoptosis assay: fragmented DNA (Cell Death Detection ELISA) in in vitro bead assay; format: cell-based, human; settings: 10 μM, stressed mesothelial cells (FIG. 11)
Procedure: FIG. 11: Apoptosis Assay. Measurement of fragmented DNA as indicator for apoptosis after 5 days having applied CK666, Golgicide A, Rhosin, Bepridil, Heat shock protein inhibitor 1 (HIS-1) using the in vitro bead assay. Stautosporin serves as a positive control.
Met-5A cells were seeded on gelatin (Sigma Aldrich, #G1393) coated dishes. Once a confluent monolayer was established, stressed cell-covered beads were seeded onto the monolayer. For the inhibitory experiments, if not indicated otherwise, monolayer cells were pretreated with 10 μM of indicated compounds for 30 minutes in culture medium. After 24 h fragmented DNA was determined via Cell Death Detection […] (Sigma Aldrich, #11774425001).
as §2

Compound | transmissibility (Met-5A cells) | adhesion formation (carrier-carrier aggregation) [1] | protrusion development in heliocytes [2] | adhesion formation (adhesion score) (adhesion formation) | adhesion score (adhesion formation; single application of 10 nM in 2% cellulose, topical, 5 days after injury (FIG. 16)) | caspase3 activity (nanoluciferase activity of reporter) [3] | initial desiccation-induced transmission (Met-5A cells; HIF-1α inhibition (FIG. 3G)) | fragmented DNA (indicator for apoptosis) [4]
CC(C)COCC(CN(Cc1ccccc1)c1ccccc1)N1CCCC1 (stereo not drawn) [Bepridil] | completely blocked | completely blocked | completely blocked | robustly inhibited adhesion formation |  |  |  | 
Cc1[nH]c2ccccc2c1CCNC(=O)c1ccccc1F [CK-666] | completely blocked | completely blocked | completely blocked | robustly inhibited adhesion formation |  |  |  | 
Fc1cc(F)c2c(c1)C1C=CCC1C(c1cccnc1)N2 (stereo not drawn) [Golgicide A] | completely blocked | completely blocked | completely blocked | robustly inhibited adhesion formation |  |  |  | 
CNc1ccc([N+](=O)[O-])c(Nc2ccc3[nH]ncc3c2)n1 [KRIBB11] |  |  |  |  | shows no effect |  |  | 
CN[C@@H]1C[C@H]2O[C@@](C)([C@@H]1OC)n1c3ccccc3c3c4c(c5c6ccccc6n2c5c31)C(=O)NC4 [Staurosporine] |  |  |  |  |  | enhanced nanoluciferase activity |  | 
CS[C@H]1SC[C@H]2C(=O)N(C)[C@@H](C(C)C)C(=O)OC[C@@H](NC(=O)c3cnc4ccccc4n3)C(=O)N[C@@H](C)C(=O)N(C)[C@@H]1C(=O)N(C)[C@@H](C(C)C)C(=O)OC[C@@H](NC(=O)c1cnc3ccccc3n1)C(=O)N[C@@H](C)C(=O)N2C [echinomycin] |  |  |  |  |  |  | could be prevented | 
Rhosin | completely blocked | completely blocked | completely blocked | robustly inhibited adhesion formation |  | higher caspase3 activity |  | significantly more fragmented DNA
